Source: patent publication US20260217708A1, “FUSED BENZAZEPINE DERIVATIVES FOR USE IN THE TREATMENT OF CANCER AND EPILEPSY” (UCB BIOPHARMA SRL, priority 2023, published 2026)

Legend:
system Xc^− [1] = target: T1, system Xc^− (Homo sapiens, UniProt Q9UPY5); assay: [^14C]L-Cystine uptake assay; format: cell-based; set-up: endogenous in cells; host or cells: H4 cells; conditions: H4 cells, sodium-free HEPES buffer, 0.5 μM L-[14C]Cystine and 4.5 μM L-Cystine, 1 hour at 37° C.; read-out: pIC50 [^14C] L-Cystine uptake assay (converted)
T1 sequence (Q9UPY5 1-501): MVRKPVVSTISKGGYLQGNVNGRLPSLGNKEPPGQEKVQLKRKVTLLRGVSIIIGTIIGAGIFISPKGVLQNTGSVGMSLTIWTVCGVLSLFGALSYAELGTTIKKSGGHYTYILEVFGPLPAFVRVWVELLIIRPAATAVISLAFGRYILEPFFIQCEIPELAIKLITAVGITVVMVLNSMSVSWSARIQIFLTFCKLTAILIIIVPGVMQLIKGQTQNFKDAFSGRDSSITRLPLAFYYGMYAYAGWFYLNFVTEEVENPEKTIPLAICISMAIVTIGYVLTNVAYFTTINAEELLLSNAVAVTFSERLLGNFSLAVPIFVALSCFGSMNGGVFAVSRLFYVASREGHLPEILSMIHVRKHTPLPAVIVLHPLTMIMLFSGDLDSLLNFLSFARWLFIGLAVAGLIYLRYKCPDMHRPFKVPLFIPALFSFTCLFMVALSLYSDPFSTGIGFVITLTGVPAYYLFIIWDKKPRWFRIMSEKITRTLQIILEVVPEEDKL
T1 sequence (P08195 1-529 partner): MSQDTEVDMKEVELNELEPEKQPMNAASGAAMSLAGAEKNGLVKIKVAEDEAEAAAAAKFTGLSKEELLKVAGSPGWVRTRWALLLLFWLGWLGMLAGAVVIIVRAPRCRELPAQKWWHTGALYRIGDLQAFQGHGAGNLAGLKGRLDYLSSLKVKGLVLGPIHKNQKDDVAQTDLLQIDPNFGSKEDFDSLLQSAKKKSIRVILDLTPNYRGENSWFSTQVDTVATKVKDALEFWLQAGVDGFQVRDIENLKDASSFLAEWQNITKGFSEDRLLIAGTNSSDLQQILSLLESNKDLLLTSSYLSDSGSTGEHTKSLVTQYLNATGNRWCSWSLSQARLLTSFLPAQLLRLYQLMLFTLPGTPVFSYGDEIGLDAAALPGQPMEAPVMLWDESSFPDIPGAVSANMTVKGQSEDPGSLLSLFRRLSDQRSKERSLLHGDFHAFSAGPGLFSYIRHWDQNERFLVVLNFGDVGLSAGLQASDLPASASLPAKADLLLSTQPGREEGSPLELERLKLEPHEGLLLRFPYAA
Outline: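 H4 cells at 5×10^4 cells/well in sodium-free HEPES buffer were preincubated 15 min with compounds (1% DMSO). Uptake of 0.5 μM [14C]L-cystine plus 4.5 μM unlabelled L-cystine ran 1 hour at 37° C on scintillating plates. IC50 was set between 1% DMSO and 50 μM Erastin controls and expressed as pIC50.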

system Xc^− [2] = target: T1, system Xc^−; assay: Cystine-induced glutamate release assay; format: cell-based; set-up: endogenous in cells; host or cells: H4 cells; conditions: H4 cells, sodium-free HEPES buffer, 50 μM L-Cystine, 2 hours, Amplex Red glutamate readout; read-out: pIC50 Cystine-induced glutamate release assay (converted)
Outline: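 H4 cells in sodium-free HEPES buffer (pH 7.4), 2 days after plating; glutamate release induced with 50 μM L-cystine plus compound (1% DMSO), 2 h at 37 °C. Supernatant glutamate measured by Amplex Red fluorescence; IC50/pIC50 derived between 1% DMSO and 50 μM erastin controls.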

SMILES | IC50 (system Xc^− [1]) | IC50 (system Xc^− [2])
Cc1cc2c(c(F)n1)-c1cccnc1C(C)C(=O)N2CC(=O)Nc1ccc2c(cnn2C)c1 (stereo not drawn) [#129, 2-(3-fluoro-5,10-dimethyl-9-oxo-4,8,12-triazatricyclo[9.4.0.0^2,7]pentadeca-1(11),2(7),3,5,12,14-hexaen-8-yl)-N-(1-methylindazol-5-yl)acetamide] | 39.8 to 100 nM | 39.8 to 100 nM
Cc1cc2c(c(F)n1)-c1cccnc1[C@@H](C)C(=O)N2CC(=O)Nc1ccc2c(cnn2C)c1 [#141, 2-[(10R)-3-fluoro-5,10-dimethyl-9-oxo-4,8,12-triazatricyclo[9.4.0.0^2,7]pentadeca-1(11),2(7),3,5,12,14-hexaen-8-yl]-N-(1-methylindazol-5-yl)acetamide] | 15.8 to 39.8 nM | 15.8 to 39.8 nM
Cc1cc2c(c(CO)n1)-c1ccccc1CC(=O)N2CC(=O)Nc1ccc(C(F)(F)F)cc1 [#66, 2-[1-(hydroxymethyl)-3-methyl-6-oxo-7H-pyrido[4,3-d][3]benz-azepin-5-yl]-N-[4-(trifluoromethyl)phen-yl]acetamide] | 39.8 to 100 nM | 100 to 501 nM
CC1C(=O)N(CC(=O)Nc2ccc(Cl)c(F)c2)c2cc(CN3CC(F)(F)C3)ccc2-c2cccnc21 (stereo not drawn) [#344, N-(4-chloro-3-fluoro-phenyl)-2-[9-[(3,3-difluoroazetidin-1-yl)methyl]-5-methyl-6-oxo-5H-pyrido[2,3-d][1]benzazepin-7-yl]acetamide] | 100 to 501 nM | 39.8 to 100 nM
Cc1cc2c(c(F)n1)-c1ccc(F)cc1C(O)C(=O)N2CC(=O)Nc1ccc(C(F)F)cc1 (single isomer, unassigned) [#380, 2-[1,9-difluoro-7-hydroxy-3-methyl-6-oxo-7H-pyrido[4,3-d][3]benzazepin-5-yl]-N-[4-(difluoromethyl)phenyl]acetamide] | < 15.8 nM | < 15.8 nM
Cc1cc2c(c(F)n1)-c1cncnc1[C@@H](C)C(=O)N2CC(=O)Nc1ccc(C(F)(F)F)cc1 (single isomer, unassigned) [#202, Enantiomer (8R) or (8S) of 2-[15-fluoro-8,13-dimethyl-9-oxo-4,6,10,14-tetrazatricyclo[9.4.0.0^2,7]pentadeca-1(15),2(7),3,5,11,13-hexaen-10-yl]-N-[4-(trifluoromethyl)phenyl]acetamide] | 15.8 to 39.8 nM | 39.8 to 100 nM
COc1cc2c(c(OC)n1)-c1cccnc1CC(=O)N2CC(=O)Nc1ccc(C(F)(F)F)cc1 [#108, 2-(3,5-dimethoxy-9-oxo-4,8,12-triazatricyclo[9.4.0.0^2,7]pentadeca-1(11),2,4,6,12,14-hexaen-8-yl)-N-[4-(trifluoromethyl)phenyl]acetamide] | < 15.8 nM | 39.8 to 100 nM
CC1C(=O)N(CC(=O)Nc2ccc(Cl)c(F)c2)c2cc(OCCO)nc(F)c2-c2cccnc21 (stereo not drawn) [#375, N-(4-chloro-3-fluoro-phenyl)-2-[3-fluoro-5-(2-hydroxyethoxy)-10-methyl-9-oxo-4,8,12-triazatricyclo[9.4.0.0^2,7]pentadeca-1(15),2,4,6,11,13-hexaen-8-yl]acetamide] | < 15.8 nM | < 15.8 nM
O=C(CN1C(=O)Cc2ccncc2-c2cnc(Cl)cc21)Nc1ccc(C(F)(F)F)cc1 [#11, 2-(5-chloro-9-oxo-4,8,14-triazatricyclo[9.4.0.0^2,7]pentadeca-1(11),2(7),3,5,12,14-hexaen-8-yl)-N-[4-(trifluoromethyl)phenyl]acetamide] | 100 to 501 nM | 100 to 501 nM
COc1nc(C)cc2c1-c1cncnc1CC(=O)N2CC(=O)Nc1ccc(C(F)(F)F)cc1 [#98, 2-(15-methoxy-13-methyl-9-oxo-4,6,10,14-tetrazatricyclo[9.4.0.0^2,7]pentadeca-1(15),2(7),3,5,11,13-hexaen-10-yl)-N-[4-(trifluoromethyl)phenyl]acetamide] | 15.8 to 39.8 nM | 39.8 to 100 nM
Cc1cc2c(c(F)n1)-c1cccnc1C(C)C(=O)N2CC(=O)Nc1ccc(F)c(F)c1 (stereo not drawn) [#130, N-(3,4-difluorophenyl)-2-(3-fluoro-5,10-dimethyl-9-oxo-4,8,12-triazatricyclo[9.4.0.0^2,7]pentadeca-1(11),2(7),3,5,12,14-hexaen-8-yl)acetamide] | 39.8 to 100 nM | 39.8 to 100 nM
CC1C(=O)N(CC(=O)Nc2ccc(Cl)c(F)c2)c2cc(N3CC4(CC4)C3)nc(F)c2-c2cccnc21 (single isomer, unassigned) [#267, 2-[5-(5-azaspiro[2.3]hexan-5-yl)-3-fluoro-10-methyl-9-oxo-4,8,12-triazatricyclo[9.4.0.0^2,7]pentadeca-1(15),2,4,6,11,13-hexaen-8-yl]-N-(4-chloro-3-fluoro-phenyl)acetamide] | 39.8 to 100 nM | 15.8 to 39.8 nM
Cc1cc2c(c(OCCO)n1)-c1cccnc1[C@@H](C)C(=O)N2CC(=O)Nc1ccc(C(F)F)cc1 [#374, N-[4-(difluoromethyl)phenyl]-2-[(10R)-3-(2-hydroxyethoxy)-5,10-dimethyl-9-oxo-4,8,12-triazatricyclo[9.4.0.0^2,7]pentadeca-1(11),2(7),3,5,12,14-hexaen-8-yl]acetamide] | < 15.8 nM | < 15.8 nM
O=C(CN1C(=O)Cc2sccc2-c2cnc(Cl)cc21)Nc1ccc(C(F)(F)F)cc1 [#26, 2-(12-chloro-8-oxo-5-thia-9,13-diazatricyclo[8.4.0.0^2,6]tetradeca-1(10),2(6),3,11,13-pentaen-9-yl)-N-[4-(trifluoromethyl)phenyl]acetamide] | 39.8 to 100 nM | 100 to 501 nM
CC1C(=O)N(CC(=O)Nc2ccc(C(F)F)cc2)c2cc(N3CCOCC3)nc(F)c2-c2cccnc21 (stereo not drawn) [#271, N-[4-(difluoromethyl)phenyl]-2-(3-fluoro-10-methyl-5-morpholino-9-oxo-4.8,12-triazatricyclo[9.4.0.0^2,7]pentadeca-1(15),2,4,6,11,13-hexaen-8-yl)acetamide] | < 15.8 nM | 15.8 to 39.8 nM
Cc1cc2c(cc1C)N(CC(=O)Nc1ccc(Cl)c(F)c1)C(=O)Cc1cccnc1-2 [#1, N-(4-chloro-3-fluoro-phenyl)-2-(9,10-dimethyl-6-oxo-5-H-pyrido[3,2-d][1]benzazepin-7-yl)acetamide] | 39.8 to 100 nM | 100 to 501 nM
Cc1cc2c(c(Cl)n1)-c1ccccc1CC(=O)N2CC(=O)Nc1ccc(Cl)c(F)c1 [#50, N-(4-chloro-3-fluoro-phenyl)-2-(1-chloro-3-methyl-6-oxo-7H-pyrido[4,3-d][3]benz-azepin-5-yl)acetamide] | < 15.8 nM | 39.8 to 100 nM
Cc1cc2c(c(F)n1)-c1ccc(Cl)cc1CC(=O)N2CC(=O)Nc1ccc(C(F)(F)F)cc1 [#85, 2-(9-chloro-1-fluoro-3-methyl-6-oxo-7H-pyrido[4,3-d][3]benzazepin-5-yl)-N-[4-(trifluoromethyl)phenyl]acetamide] | 100 to 501 nM | 39.8 to 100 nM
CC1C(=O)N(CC(=O)Nc2ccc(C(F)F)cc2)c2cc(C3CC3)nc(Cl)c2-c2cccnc21 (stereo not drawn) [#347, 2-(3-chloro-5-cyclopropyl-10-methyl-9-oxo-4,8,12-triazatricyclo[9.4.0.0^2,7]pentadeca-1(15),2,4,6,11,13-hexaen-8-yl)-N-[4-(difluoromethyl)phenyl]acetamide] | 15.8 to 39.8 nM | 39.8 to 100 nM
Cc1cc2c(cn1)-c1cnccc1CC(=O)N2CC(=O)Nc1ccc(C(F)(F)F)cc1 [#6, 2-(5-methyl-9-oxo-4,8,14-triazatricyclo[9.4.0.0^2,7]pentadeca-1(11),2(7),3,5,12,14-hexaen-8-yl)-N-[4-(trifluoromethyl)phenyl]acetamide] | 100 to 501 nM | 100 to 501 nM
CC1C(=O)N(CC(=O)Nc2ccc(Cl)c(F)c2)c2cc(Cl)cc(F)c2-c2ncncc21 (single isomer, unassigned) [#418, 2-[9-chloro-11-fluoro-5-methyl-6-oxo-5H-pyrimido[5,4-d][1]benzazepin-7-yl]-N-(4-chloro-3-fluoro-phenyl)acetamide] | 39.8 to 100 nM | 39.8 to 100 nM
